Measurements from patent US20210386367A1, “DEVICES AND SYSTEMS FOR GASTROINTESTINAL MICROBIOME DETECTION AND MANIPULATION” (Progenity, Inc., priority 2018, published 2021).
≈ marks a conversion by molar mass, not a printed value. Like-named read-outs stand apart in the source and are kept apart here.

Assays:
Assay in all cases: Broth microdilution MIC, 50 clinical isolates
Assay type in all cases: cell-based
Proteus mirabilis = test system: Proteus mirabilis
How it was run: (§1)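 CLSI broth microdilution in cation-adjusted Mueller Hinton broth, with 3% lysed horse blood added for streptococci. Two-fold dilutions, inoculum ~5×10^5 CFU/mL, 35° C for 16-24 hr in ambient air (streptococci with CO2 planchets). MIC = lowest concentration inhibiting visible growth.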

Pseudomonas aeruginosa = test system: Pseudomonas aeruginosa
How it was run: as §1

Enterobacter aerogenes = test system: Enterobacter aerogenes
How it was run: as §1

Compound: COc1c(N2C[C@@H]3CCCN[C@@H]3C2)c(F)cc2c(=O)c(C(=O)O)cn(C3CC3)c12 [moxifloxacin]
- Mode (Proteus mirabilis): 0.25 µg/mL
- Cumulative percentage of isolates inhibited at MIC (Proteus mirabilis; 0.5 μg/mL): 60.0%
- Number of test isolates at MIC (Proteus mirabilis; 0.5 μg/mL): 9
- Cumulative percentage of isolates inhibited at MIC (Proteus mirabilis; 1 μg/mL): 64.0%
- Number of test isolates at MIC (Proteus mirabilis; 1 μg/mL): 2
- Cumulative percentage of isolates inhibited at MIC (Proteus mirabilis; 4 μg/mL): 66.0%
- Number of test isolates at MIC (Proteus mirabilis; 4 μg/mL): 1
- Cumulative percentage of isolates inhibited at MIC (Proteus mirabilis; 8 μg/mL): 68.0%
- Number of test isolates at MIC (Proteus mirabilis; 8 μg/mL): 1
- Cumulative percentage of isolates inhibited at MIC (Proteus mirabilis; 16 μg/mL): 72.0%
- Number of test isolates at MIC (Proteus mirabilis; 16 μg/mL): 2
- Cumulative percentage of isolates inhibited at MIC (Proteus mirabilis; 32 μg/mL): 82.0%
- Number of test isolates at MIC (Proteus mirabilis; 32 μg/mL): 5
- Cumulative percentage of isolates inhibited at MIC (Proteus mirabilis; 64 μg/mL): 90.0%
- Number of test isolates at MIC (Proteus mirabilis; 64 μg/mL): 4
- Cumulative percentage of isolates inhibited at MIC (Proteus mirabilis; 128 μg/mL): 98.0%
- Number of test isolates at MIC (Proteus mirabilis; 128 μg/mL): 4
- Cumulative percentage of isolates inhibited at MIC (Proteus mirabilis; >128 μg/mL): 100.0%
- Number of test isolates at MIC (Proteus mirabilis; >128 μg/mL): 1
- MIC50 (Proteus mirabilis; Proteus mirabilis, read-out: MIC50): 0.5 µg/mL (≈ 1.25 µM)
- MIC90 (Proteus mirabilis; Proteus mirabilis, read-out: MIC90): 64 µg/mL (≈ 159 µM)
- MIC range (Pseudomonas aeruginosa): 0.12-32 ^ μg/mL
- Mode (Pseudomonas aeruginosa): 1 µg/mL
- Cumulative percentage of isolates inhibited at MIC (Pseudomonas aeruginosa; 0.5 μg/mL): 20.0%
- Number of test isolates at MIC (Pseudomonas aeruginosa; 0.5 μg/mL): 8
- Cumulative percentage of isolates inhibited at MIC (Pseudomonas aeruginosa; 1 μg/mL): 58.0%
- Number of test isolates at MIC (Pseudomonas aeruginosa; 1 μg/mL): 19
- Cumulative percentage of isolates inhibited at MIC (Pseudomonas aeruginosa; 2 μg/mL): 60.0%
- Number of test isolates at MIC (Pseudomonas aeruginosa; 2 μg/mL): 1
- Cumulative percentage of isolates inhibited at MIC (Pseudomonas aeruginosa; 4 μg/mL): 66.0%
- Number of test isolates at MIC (Pseudomonas aeruginosa; 4 μg/mL): 3
- Cumulative percentage of isolates inhibited at MIC (Pseudomonas aeruginosa; 8 μg/mL): 78.0%
- Number of test isolates at MIC (Pseudomonas aeruginosa; 8 μg/mL): 6
- Cumulative percentage of isolates inhibited at MIC (Pseudomonas aeruginosa; 16 μg/mL): 90.0%
- Number of test isolates at MIC (Pseudomonas aeruginosa; 16 μg/mL): 6
- Cumulative percentage of isolates inhibited at MIC (Pseudomonas aeruginosa; 32 μg/mL): 100.0%
- Number of test isolates at MIC (Pseudomonas aeruginosa; 32 μg/mL): 5
- MIC50 (Pseudomonas aeruginosa; Pseudomonas aeruginosa, read-out: MIC50): 1 µg/mL (≈ 2.49 µM)
- MIC90 (Pseudomonas aeruginosa; Pseudomonas aeruginosa, read-out: MIC90): 16 µg/mL (≈ 39.9 µM)
- Number of test isolates at MIC (Pseudomonas aeruginosa; […]): 1
- MIC range (Enterobacter aerogenes): 0.03 to 0.5 µg/mL
- Mode (Enterobacter aerogenes): 0.12 µg/mL
- Cumulative percentage of isolates inhibited at MIC (Enterobacter aerogenes; 0.03 μg/mL): 10.0%
- Number of test isolates at MIC (Enterobacter aerogenes; 0.03 μg/mL): 5
- Cumulative percentage of isolates inhibited at MIC (Enterobacter aerogenes; 0.06 μg/mL): 50.0%
- Number of test isolates at MIC (Enterobacter aerogenes; 0.06 μg/mL): 20
- Cumulative percentage of isolates inhibited at MIC (Enterobacter aerogenes; 0.5 μg/mL): 100.0%
- Number of test isolates at MIC (Enterobacter aerogenes; 0.5 μg/mL): 2
- MIC50 (Enterobacter aerogenes; Klebsiella aerogenes, read-out: MIC50): 0.06 µg/mL (≈ 0.149 µM)
- MIC90 (Enterobacter aerogenes; Klebsiella aerogenes, read-out: MIC90): 0.12 µg/mL (≈ 0.299 µM)

Compound: piperacillin/tazobactam [piperacillin-tazobactam]
- % S (Proteus mirabilis): 100%
- MIC50 (Proteus mirabilis): 0.25 µg/mL
- MIC90 (Proteus mirabilis): 1 µg/mL
- MIC range (Proteus mirabilis): ≤0.12 to 2 µg/mL
- Mode (Proteus mirabilis): 0.25 µg/mL
- Cumulative percentage of isolates inhibited at MIC (Proteus mirabilis; 0.5 μg/mL): 82.0%
- Number of test isolates at MIC (Proteus mirabilis; 0.5 μg/mL): 16
- Cumulative percentage of isolates inhibited at MIC (Proteus mirabilis; 1 μg/mL): 96.0%
- Number of test isolates at MIC (Proteus mirabilis; 1 μg/mL): 7
- Cumulative percentage of isolates inhibited at MIC (Proteus mirabilis; 2 μg/mL): 100.0%
- Number of test isolates at MIC (Proteus mirabilis; 2 μg/mL): 2
- Cumulative percentage of isolates inhibited at MIC (Proteus mirabilis; […]): 50.0%
- Number of test isolates at MIC (Proteus mirabilis; […]): 22
- Cumulative percentage of isolates inhibited at MIC (Proteus mirabilis; ≤[…]): 6.0%
- Number of test isolates at MIC (Proteus mirabilis; ≤[…]): 3
- % I (Pseudomonas aeruginosa): 14%
- % R (Pseudomonas aeruginosa): 22%
- % S (Pseudomonas aeruginosa): 64%
- MIC50 (Pseudomonas aeruginosa): 8 µg/mL
- MIC90 (Pseudomonas aeruginosa): >128 µg/mL
- Mode (Pseudomonas aeruginosa): 4 µg/mL
- Cumulative percentage of isolates inhibited at MIC (Pseudomonas aeruginosa; 2 μg/mL): 6.0%
- Number of test isolates at MIC (Pseudomonas aeruginosa; 2 μg/mL): 3
- Cumulative percentage of isolates inhibited at MIC (Pseudomonas aeruginosa; 4 μg/mL): 40.0%
- Number of test isolates at MIC (Pseudomonas aeruginosa; 4 μg/mL): 17
- Cumulative percentage of isolates inhibited at MIC (Pseudomonas aeruginosa; 8 μg/mL): 60.0%
- Number of test isolates at MIC (Pseudomonas aeruginosa; 8 μg/mL): 10
- Cumulative percentage of isolates inhibited at MIC (Pseudomonas aeruginosa; 16 μg/mL): 64.0%
- Number of test isolates at MIC (Pseudomonas aeruginosa; 16 μg/mL): 2
- Cumulative percentage of isolates inhibited at MIC (Pseudomonas aeruginosa; 32 μg/mL): 74.0%
- Number of test isolates at MIC (Pseudomonas aeruginosa; 32 μg/mL): 5
- Cumulative percentage of isolates inhibited at MIC (Pseudomonas aeruginosa; 64 μg/mL): 78.0%
- Number of test isolates at MIC (Pseudomonas aeruginosa; 64 μg/mL): 2
- Cumulative percentage of isolates inhibited at MIC (Pseudomonas aeruginosa; 128 μg/mL): 84.0%
- Number of test isolates at MIC (Pseudomonas aeruginosa; 128 μg/mL): 3
- Cumulative percentage of isolates inhibited at MIC (Pseudomonas aeruginosa; >128 μg/mL): 100.0%
- Number of test isolates at MIC (Pseudomonas aeruginosa; >128 μg/mL): 8
- % I (Enterobacter aerogenes): 16%
- % R (Enterobacter aerogenes): 8%
- % S (Enterobacter aerogenes): 76%
- MIC50 (Enterobacter aerogenes): 4 µg/mL
- MIC90 (Enterobacter aerogenes): 64 µg/mL
- Mode (Enterobacter aerogenes): 2 µg/mL
- Cumulative percentage of isolates inhibited at MIC (Enterobacter aerogenes; 1 μg/mL): 4.0%
- Number of test isolates at MIC (Enterobacter aerogenes; 1 μg/mL): 2
- Cumulative percentage of isolates inhibited at MIC (Enterobacter aerogenes; 2 μg/mL): 38.0%
- Number of test isolates at MIC (Enterobacter aerogenes; 2 μg/mL): 17
- Cumulative percentage of isolates inhibited at MIC (Enterobacter aerogenes; 4 μg/mL): 62.0%
- Number of test isolates at MIC (Enterobacter aerogenes; 4 μg/mL): 12
- Cumulative percentage of isolates inhibited at MIC (Enterobacter aerogenes; 8 μg/mL): 74.0%
- Number of test isolates at MIC (Enterobacter aerogenes; 8 μg/mL): 6
- Cumulative percentage of isolates inhibited at MIC (Enterobacter aerogenes; 16 μg/mL): 76.0%
- Number of test isolates at MIC (Enterobacter aerogenes; 16 μg/mL): 1
- Cumulative percentage of isolates inhibited at MIC (Enterobacter aerogenes; 32 μg/mL): 88.0%
- Number of test isolates at MIC (Enterobacter aerogenes; 32 μg/mL): 6
- Cumulative percentage of isolates inhibited at MIC (Enterobacter aerogenes; 64 μg/mL): 92.0%
- Number of test isolates at MIC (Enterobacter aerogenes; 64 μg/mL): 2
- Cumulative percentage of isolates inhibited at MIC (Enterobacter aerogenes; 128 μg/mL): 98.0%
- Number of test isolates at MIC (Enterobacter aerogenes; 128 μg/mL): 3
- Cumulative percentage of isolates inhibited at MIC (Enterobacter aerogenes; >128 μg/mL): 100.0%
- Number of test isolates at MIC (Enterobacter aerogenes; >128 μg/mL): 1
